Common to all, as to experiment: NCI tumour cell line growth inhibition, 48 h
Experiment [1] has as its system CCRF-CEM leukemia.
For experiment [2], the system named is COLO 205 colon.
For experiment [3], the system named is DLD-1 colon.
Experiment [4] has as its system HOP-18 NSCLC.
The test system of experiment [5] is KM12 colon.
The subject of experiment [6] is LOX IMVI melanoma.
The test system of experiment [7] is SN12C renal.
For experiment [8], the system named is U251 CNS.
In experiment [9] the test system is UO-31 renal.
For experiment [10], the system named is OVCAR-4 ovarian.

Consider 21 compounds from PubChem BioAssay (NCI).

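Five compound concentrations were applied to cells in 96-well plates for 48 hours; endpoints were derived by simple linear interpolation of the resulting dose-response curve. GI50 is the concentration that inhibits growth by half. TGI: concentration producing complete growth inhibition.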

As for `COC(=O)[C@]1(C)C(OC)=CC(=O)C2C1[C@H]1CCC[C@@H]21` (stereo partly specified), the TGI in [1], in experiment [2], in experiment [3], in experiment [4], in [5] and in experiment [6] was more than 100 µM in each case. Also, the TGI in [7], in experiment [8] and in [9] was more than 100 µM each time.
Consider `COc1cc(/C=C/c2ccc(OC)c(OC)c2OC)cc(OC)c1OC`, for which the TGI in experiment [1] is 85.8 µM; in experiment [2] it was 33.3 µM; in [3], more than 100 µM; in [4], 44.9 µM; in [5], 57.3 µM; in experiment [6], 30.8 µM. The TGI in experiment [10] was 70.9 µM; in experiment [7], more than 69.5 µM; in experiment [8], 36.2 µM; in experiment [9], 46.3 µM.
Take `CCOC(=O)c1c(-c2ccccc2)c(C(OC(c2ccccc2)c2c(-c3ccccc3)c(C(=O)OCC)n3ccccc23)c2ccccc2)c2ccccn12` (stereo unspecified): the TGI in experiment [1], in [2], in [3], in experiment [4], in experiment [5] and in experiment [6] was more than 100 µM each time. In addition, the TGI in experiment [10], in experiment [7] and in [9] was more than 100 µM throughout.
`ClCc1ccc(C2OCCO2)cc1`: the TGI in experiment [1] was more than 69.7 µM; in experiment [2] it was 37.8 µM; in experiment [3], 34.3 µM; in experiment [4] it was more than 92.2 µM; in [5], 18.4 µM; in experiment [6] it was 24.5 µM. In addition, the TGI was 35.3 µM in experiment [7], 17.2 µM in experiment [8] and more than 56.2 µM in experiment [9].
As for `COC(=O)c1ccc(C(=O)OC)c2nc3cc(C)ccc3nc12`, the TGI in [1], in [2], in [3], in experiment [4], in experiment [5] and in experiment [6] was more than 100 µM in each case. For the same compound, the TGI in experiment [10], in experiment [7], in [8] and in experiment [9] was more than 100 µM each time.
Regarding `CCCCCCCCCCCCCCCCCCNC(=O)OCC(CNS(=O)(=O)CCC[n+]1cccc2ccccc21)COC` (stereo unspecified), the TGI was 27.5 µM in experiment [3]; 15.4 µM in experiment [4]; 7.01 µM in experiment [10]; 20.8 µM in experiment [7]; more than 75.1 µM in experiment [9].
Regarding `Nc1ccc(C(=O)CC2(O)C(=O)Nc3c(Cl)cc(Cl)cc32)cc1` (stereo unspecified), the TGI in experiment [1], in [2], in experiment [3], in experiment [4], in experiment [5] and in experiment [6] was more than 100 µM throughout. Moreover, the TGI in experiment [10] was more than 100 µM; in experiment [7] it was more than 100 µM; in [8], 95.7 µM; in experiment [9], more than 100 µM.
For the compound `Cc1c(C(=O)CC(=O)C(=O)Nc2cc(Cl)ccc2Cl)[n+](=O)c2ccccc2n1[O-]`, the TGI in [1] is more than 100 µM; in experiment [2], 69.6 µM; in experiment [4], more than 100 µM; in experiment [5] it was more than 100 µM; in experiment [6] it was 93.5 µM; in experiment [10], more than 100 µM. The TGI in experiment [7], in experiment [8] and in experiment [9] was more than 100 µM in each case.
On to `CC1=NOC(=O)C1N=Nc1ccc(Br)c(C)c1` (stereo unspecified), for which the TGI was 34.3 µM in [1]; 52.9 µM in experiment [2]; 63.1 µM in experiment [3]; 19.8 µM in [4]; 78 µM in experiment [5]; 29.3 µM in experiment [10]. Further, the TGI in experiment [7] came to 48.5 µM; in experiment [8], 37.8 µM.
`O=c1cc(-c2ccccn2)[nH]c2cc(F)ccc12`: the TGI in experiment [2], in experiment [3], in experiment [4], in [5], in experiment [6] and in [10] was more than 100 µM in each case. For the same compound, the TGI in experiment [7] and in [9] was more than 100 µM each time.
Regarding `CCC[CH2][Sn]1([CH2]CCC)[O]C(=O)c2ccc(N)cc2[O]1`, the GI50 in [1] is 0.0357 µM; in experiment [2], 0.594 µM; in experiment [4], 0.997 µM; in [5], 1.24 µM; in experiment [6], 0.287 µM; in experiment [10], 1.29 µM. Further, the GI50 in [7] was 0.88 µM; in experiment [8], 0.471 µM; in experiment [9], 0.465 µM. Moreover, the TGI was found to be 1.85 µM in experiment [1]; 1.98 µM in experiment [2]; 2.18 µM in experiment [4]; 2.59 µM in experiment [5]; 1.45 µM in experiment [6]; 2.59 µM in experiment [10]. The TGI in experiment [7] worked out at 2.37 µM; in experiment [8], 1.81 µM; in [9], 1.82 µM.
For `Clc1ccc(-c2c(C3=NCCN3)nnn2-c2ccccc2)cc1`, the TGI in experiment [1], in experiment [2], in experiment [3], in experiment [4], in [5] and in [6] was more than 100 µM in each case. Moreover, the TGI in experiment [10], in experiment [7], in [8] and in experiment [9] was more than 100 µM each time.
Regarding `C/C(=N\NC(=S)N1CCN(c2ccccn2)CC1)c1nccs1`, the GI50 in [1] is 0.00596 µM; in experiment [2], 0.0361 µM; in experiment [6], 0.0952 µM. Moreover, the TGI is 0.256 µM in experiment [1]; 15.3 µM in experiment [2]; 34.4 µM in experiment [3]; more than 90.8 µM in experiment [4]; 18.9 µM in experiment [5]; 2.42 µM in experiment [6]. For the same compound, the TGI in experiment [10] is 22.5 µM; in experiment [7], 15.9 µM; in experiment [8] it was 9.8 µM; in experiment [9], 14 µM.
With `CCCCCCCCCCCCCC(=O)NCC(OCC)OCC`, the TGI in [1], in [2], in experiment [3], in experiment [4], in [5] and in experiment [6] was more than 100 µM throughout. Moreover, the TGI in [10], in experiment [7], in experiment [8] and in [9] was more than 100 µM in each case.
For `Nc1cc2[nH]cnc2c(=O)[nH]1`, the TGI in [1] was more than 300 µM; in experiment [2] it was 228 µM; in experiment [3], more than 300 µM; in [4] it was more than 300 µM; in experiment [5] it was more than 300 µM; in experiment [6], more than 300 µM. The TGI in experiment [10], in experiment [7], in experiment [8] and in experiment [9] was more than 300 µM throughout.
For `COC(=O)[C@H]1N[C@@H](C(=O)OC)C23CCC[C@H]2CC[C@]1(C(OC)OC)C3`, the TGI in experiment [1], in [2], in experiment [3], in experiment [4], in experiment [5] and in experiment [6] was more than 100 µM throughout. The TGI in experiment [10], in experiment [7], in experiment [8] and in [9] was more than 100 µM each time.
As for `COc1cc(C2c3cc4c(cc3[C@@H](OCCN(C)C)C3COC(=O)[C@H]23)OCO4)cc(OC)c1O` (stereo partly specified), the TGI in [2] worked out at 16 µM; in experiment [3], 5.93 µM; in experiment [4], 4.36 µM; in experiment [5], 2.75 µM; in experiment [6] it was 1.27 µM; in [10] it was 6.33 µM. The TGI was found to be 0.606 µM in experiment [7], 1.27 µM in experiment [8] and 2.04 µM in [9].
For the compound `O=C(O)Cc1ccccc1CCc1ccccc1Cl`, the TGI in experiment [1], in experiment [2], in experiment [3], in [4], in [5] and in experiment [6] was more than 100 µM in each case. For the same compound, the TGI in experiment [10], in experiment [7], in experiment [8] and in experiment [9] was more than 100 µM each time.
Regarding `Cc1c(Cl)cccc1NC(=O)/C(Cl)=C(\Cl)C(=O)O`, the TGI in experiment [1] worked out at 44.5 µM; in experiment [2] it was 21.6 µM; in experiment [3], 40.6 µM; in experiment [4], 31.7 µM; in [5], 31.1 µM; in [6], 32.7 µM. The TGI in experiment [10] is 31.6 µM; in experiment [7] it was 31.2 µM; in experiment [8], 32.7 µM; in experiment [9], 32.7 µM.
On to `Clc1ccc2ns[s+]c2c1`, for which the TGI in experiment [1] is more than 81.9 µM; in experiment [2], more than 44.9 µM; in experiment [3], more than 100 µM; in experiment [4] it was more than 100 µM; in experiment [5], more than 100 µM; in experiment [6], more than 84 µM. Also, the TGI in experiment [10] was more than 100 µM; in experiment [7], more than 100 µM; in experiment [8], more than 100 µM; in experiment [9] it was more than 66.8 µM.
With `COc1cc(C2c3cc4c(cc3[C@@H](N(C)C)[C@H]3COC(=O)C23)OCO4)cc(OC)c1O` (stereo partly specified), the TGI in experiment [1], in experiment [2], in [3], in [5], in experiment [6] and in [10] was more than 100 µM each time. Moreover, the TGI in [7], in experiment [8] and in experiment [9] was more than 100 µM in each case.
